# In article PMC9138545, “Incorporation of Oxidized Phenylalanine Derivatives into Insulin Signaling Relevant Proteins May Link Oxidative Stress to Signaling Conditions Underlying Chronic Insulin Resistance” (Biomedicines, 2022):
# Key:
# IRS-1 (Tyr612) = assay: Western blot, activating phosphorylation of IRS-1 (Tyr612); type: cell-based; conditions: n = 4–8; for insulin-induced IRS-1 phosphorylation: 400 nmol/L insulin, adipocytes, HEK cells, podocytes, macrophages; for basal IRS-1 phosphorylation: without insulin, cells grown on o- or m-Tyr medium
# Procedure: (§1) Early passages of mouse embryo fibroblast (3T3-L1) (ATCC, Manassas, VA, US) were cultured in Dulbecco’s modified Eagle medium (DMEM, Sigma Aldrich, Budapest, Hungary, CAT number: D6046; Invitrogen, Waltham, MA, USA, CAT number: 41966-029) supplemented with 100 U/mL penicillin, 0.1 mg/mL streptomycin (Gibco, Budapest, Hungary, CAT number: 15070-063) and 10% heat-inactivated Fetal Bovine Serum (FBS, Gibco, CAT number: 16170-078), supplemented with 398 nM p-, m-, or o-Tyr (equimolar to the original p-Tyr content of the medium) purchased from Sigma (CAT number: para-Tyr: T8566, m-Tyr: T3629, o-Tyr: 93851). Media contained 25 or 5 mmol/L glucose (experiment dependent) pyruvate and L-glutamine. Cells were grown at 37 °C and 5% CO2. Adipocyte differentiation was achieved by DMEM supplemented with 10% FBS (Gibco, Csertex, Budapest, Hungary, CAT number: 10106-169) (FBS) and a […] insulin (Sigma Aldrich, Budapest, Hungary, CAT number: I 9278), […] isobuthylmethylxanthine (Sigma Aldrich, Budapest, Hungary, CAT number: I 5879), and 250 nmol/L dexamethasone (Sigma Aldrich, Budapest, Hungary, CAT number: 861871) containing cocktail. From day 4 onward, cultures were maintained in DMEM containing 1.5 μg/mL insulin and 10% FBS with a medium change every other day until experimental treatments were started. After 90% of the cell population reached the adipocyte phenotype, prior to all treatments, cells were incubated overnight in serum-deprived medium. Experimental treatment was performed in serum-deprived medium containing 200 or 400 nmol/L insulin, for 5 min.
# (§2) The conditionally immortalized human podocyte cell line (provided by Moin Saleem, University of Bristol, UK) was cultured in RPMI1640 medium (R8756, Sigma Aldrich, Budapest, Hungary) supplemented with 10% heat-inactivated FBS (16170-078, Gibco, Budapest, Hungary), insulin-transferrin-selenium supplement (41400-045, Gibco), 100 U/mL penicillin, 0.1 mg/mL streptomycin (P4333, Sigma), and […] (equimolar to the original p-Tyr content of the medium) para-, meta-, or ortho-Tyr. The cells were grown at 33 °C 5% CO2, and when they reached 40–60% confluency they were transferred to 37 °C to differentiate. Following the thermoswitching, cells were kept on RPMI1640 medium containing 2% FBS, antibiotics, and different tyrosines. Before every treatment, cells were incubated in serum-deprived medium overnight.
# (§3) HEK-293 immortalized cell line (ATCC, Manassas, VA, USA) of epithelial morphology and the J774A.1 mouse BALB/C monocyte-macrophage cell lines (91051511-1VL, Sigma Aldrich, Budapest, Hungary) were cultured in Petri dishes with a medium composed of Dulbecco’s modified Eagle’s medium (DMEM, Sigma Aldrich, Budapest, Hungary, CAT number: D6046, Invitrogen, CAT number: 41966-029), with a 10% heat-inactivated FBS supplementation (16170-078, Gibco), insulin-transferrin-selenium supplement (41400-045, Gibco, Budapest, Hungary,), 100 U/mL penicillin and 0.1 mg/mL streptomycin (P4333, Sigma) and 398 nM para (5 and 25 mmol/L), meta-, or ortho-Tyr (T8566, T3629, 93851, Sigma). Before treatment, cells were incubated in serum-deprived medium overnight as well. […]
# (§4) The samples of lysates were vortexed and centrifuged (10 min, 13,000 rpm, at 4 °C). Protein content of the samples was determined by the Lowry method using bovine serum albumin as a standard. […]
# concomitant tumor growth = conditions: ref [42]; cited from earlier work
# Description: (§5) Furthermore, m- and o-Tyr may have a role beyond being markers ROS attack. […] For example, we have described that patients on renal replacement therapy show a connection between plasma levels of o-Tyr and erythropoietin (EPO) resistance. In a further set of experiments, m- and o-Tyr in ...
# erythroblasts = conditions: ref [43]; cited from earlier work
# Description: as §5
# plants = conditions: ref [41]; cited from earlier work
# Description: as §5
# 3T3-L1 adipocytes = assay: Isotope glucose uptake (deoxy-D-glucose 2-[1 2-3H(N)]) in differentiated 3T3-L1 adipocytes; type: cell-based, mouse; conditions: for insulin-induced glucose uptake, time dependence: 200 nmol/L insulin, cells grown 1, 2, 3, 4, 5 or 12 days with p-, n = 5–8; for insulin-induced glucose uptake, time dependence / insulin-induced glucose uptake, 5 mmol/L glucose: m- or o-Tyr; for insulin-induced glucose uptake, 5 mmol/L glucose: 2, 20, 200, 400 nmol/L insulin, medium with p-; for non-stimulated (basal) glucose uptake: no insulin, cells grown 1-12 days with m- or o-Tyr, vs. p-Tyr control
# Procedure: as §1
# Initially, cells were kept in glucose-free DMEM (Gibco, Csertex, Budapest, Hungary) for 30 min and then were treated with 2, 20, 200, or 400 nmol/L insulin for 100 min. Concurrently, 1 μCi/mL deoxy-D-glucose 2-[1 2-3H(N)] (3.7 × 104 Bq/mL) (Izotóp Intézet, Budapest, Hungary) was added to the plates for 100 min. After scraping the cells into the medium, they were centrifuged for 5 min at 1000 rpm. We dissolved the sediment in 70 μL of lysis buffer, then glucose uptake was determined by scintillation counting by measuring 30 μL of the sample, using a Beckman LS 5000 TD counter, in counts per minute (CPM), for five minutes each, with average activity was used as the outcome. Following freezing overnight at −70 °C, protein concentration was measured with a Hitachi spectrophotometer. Results were normalized for protein content.
# Akt (Ser473) = assay: Western blot, activating phosphorylation of Akt (Ser473); type: cell-based; conditions: n = 4–8; for insulin-induced Akt phosphorylation: 400 nmol/L insulin, adipocytes, HEK cells, podocytes, macrophages; for basal Akt phosphorylation: without insulin, cells grown on o- or m-Tyr medium
# Procedure: as §1, §2, §3, §4
# total proteins of cells = assay: HPLC of protein-bound tyrosines (incorporation into cellular proteins); type: cell-based; conditions: cells grown on o-Tyr or m-Tyr; n = 5–10
# Procedure: as §1
# as §2, with “overnight. […]” for “overnight.”
# The total protein-bound cellular tyrosine content was measured by adding 200 μL of distilled water to the samples, followed by freezing overnight at −70 °C to achieve cell lysis. […]
Compound,insulin-induced IRS-1 phosphorylation (IRS-1 (Tyr612)),basal IRS-1 phosphorylation (IRS-1 (Tyr612)),inhibition of concomitant tumor growth (concomitant tumor growth),EPO-dependent proliferation of erythroblasts (erythroblasts),"natural herbicide, plant growth (plants)","insulin-induced glucose uptake, time dependence (3T3-L1 adipocytes)","insulin-induced glucose uptake, 5 mmol/L glucose (3T3-L1 adipocytes)",non-stimulated (basal) glucose uptake (3T3-L1 adipocytes),insulin-induced Akt phosphorylation (Akt (Ser473)),basal Akt phosphorylation (Akt (Ser473)),protein-bound o-Tyr/p-Tyr and m-Tyr/p-Tyr ratio (total proteins of cells),protein-bound p-Tyr/Phe ratio (total proteins of cells)
"N[C@@H](Cc1cccc(O)c1)C(=O)O [m-Tyr, meta-tyrosine]",could not be further raised by insulin treatment,either unchanged or higher,involved in the inhibition of concomitant tumor growth,"inhibited the EPO-dependent proliferation of erythroblasts, in a time- and dose-dependent manner",act as a natural herbicide and inhibit the growth of plants,no significant effect,failed to induce the glucose uptake,lower than that of the p-Tyr control,could not be further raised by insulin treatment,either unchanged or higher,increased,either a decrease or remained unchanged
"NC(Cc1ccccc1O)C(=O)O (stereo not shown) [o-Tyr, ortho-tyrosine]",could not be further raised by insulin treatment,either unchanged or higher,–,"inhibited the EPO-dependent proliferation of erythroblasts, in a time- and dose-dependent manner",–,no significant effect,failed to induce the glucose uptake,lower than that of the p-Tyr control,could not be further raised by insulin treatment,either unchanged or higher,increased,either a decrease or remained unchanged
